Test [1] deals with UACC-257 human melanoma cells. Put plainly: Antitumor efficacy against subcutaneous-implanted melanoma xenograft. The format is in vivo, female, athymic NCr-nu/nu mice. As to conditions: UACC-257 xenograft, median tumor weight; Aplidine 60 μg/kg/dose IP q1d × 9, Carboplatin 50 mg/kg/dose IV q4d × 3. On the procedure: The animals were housed in microisolator cages, up to five per cage in a 12-hour light/dark cycle. Six-weeks-old female, athymic NCr-nu/nu mice were acclimated in the laboratories for one week prior to the experiment.
Each mouse was inoculated subcutaneously near the right flank with UACC-257 human melanoma cells from an in vitro cell culture using a 23-gauge needle. Each mouse received 2×10^7 cells resuspended in 0.2 mL of Matrigel®. A vial with UACC-257 human melanoma frozen cells was thawed and cultured in RPMI 1640 medium containing low glucose (2,000 mg/L), sodium bicarbonate ([…]), 2 mM L-glutamine, and 10% fetal bovine serum (complete medium), and grown in a +37° C. incubator in a humidified atmosphere with 5% CO2 until the necessary number of cells for inoculation of mice was obtained. Cells were harvested after four passages in culture. […] The cell count and viability were determined with a Beckman Coulter VI CELL XR cell counter and viability analyzer. […]
Animals were observed daily and clinical signed were noted. The s.c. tumors were measured and the animals were weighed twice weekly starting with the first day of treatment, Day 13. Tumor volume was determined by caliper measurements (mm) and using the formula for an ellipsoid sphere: L×W^2/2=mm^3, where L and W refer to the larger and smaller perpendicular dimensions collected at each measurement. […]

Test [2] concerns MRI-H187 melanoma tumor xenografts. Put plainly: Net tumor volume in tumor xenografts. It is filed as in vivo, female athymic mice. Particulars: Aplidine 50 μg/kg, DTIC 40 mg/kg, Carboplatin 25 mg/kg, i.p. The text has this:
(§1) Athymic nude female mice were received from Harlan Sprague Dawley, Madison, Wis. at 4-5 weeks of age. Mice were acclimated to the laboratory for at least one week prior to implantation of tumor. Animals were housed in static cages with food and water allowed ad libitum. Experimental animals were implanted with either tumor fragments derived from transplantation established human tumors or with cells obtain directly from in vitro culture. Tumors were implanted subcutaneously on the right flank on Day 0.
(§2) Tumor size measurements were recorded twice weekly beginning on day 4 or 5 using vernier calipers. The formula to calculate volume for a prolate ellipsoid was used to estimate tumor volume from 2-dimensional tumor measurements: tumor volume (mm^3)=(length×width^2)÷2. Assuming unit density, volume was converted to weight (i.e., 1 mm^3=1 mg). […] Treatments were initiated and administered on an individual body weight basis. A dose range finding study was performed on each tumor model to determine the appropriate dose level of each compound used in the combination studies.

In test [3] the test system is LOX-IMVI melanoma tumor xenografts. Nature of the test: Net tumor volume in tumor xenografts. Particulars: DTIC 30 mg/kg, Carboplatin 25 mg/kg, i.p. The format is in vivo, female athymic mice.
Description: as §1, §2

The next test deals with LOXIMVI cells. Nature of the test: MTS assay Example 2, single agents and combinations. It is filed as cell-based. Particulars: read-out: IC50 (Molar). The protocol: (§3) The day before plating cells all cultures were fed with fresh, complete growth media. On the harvest (plating) day cells were counted by Trypan Blue exclusion staining method.
(§4) Cells were harvested and seeded in 96 well microtiter plates at 15,000 cells per well in 190 μl of media and incubated for 24 hours to allow the cells to attach before drug addition.
(§5) The cytotoxic effect was measured by the MTS Assay (Tetrazolium), which is a colorimetric method for determining the number of viable cells.
(§6) After 72 hours of incubation with tested agents 25 μl of MTS+PMS solution was added to each microtiter well and incubated for 4 hours at 37° C. Plates were then removed from incubator and placed on plate shaker for 5 minutes (covered with aluminum foil for protection from light). Optical densities were read at 490 nm on spectrophotometer plate reader. Data was analyzed as: • 1. Prism (Graphpad) software program was used to normalized the data to control values (100%=cell growth in the absence of agent (drug); 0%=blank control). • 2. Data normalized were plotted as scatter plots.
(§7) Conversely, antagonism was concluded when inhibition was lower than both maxima. […] Statistical significance was assessed by performing a student's t-test on the inhibition at each dose ratio versus the inhibition at the maximum for each drug.
(§8) As a visual aid, response values were plotted on a scatter plot with dose ratios given on the x-axis and % response values on the y-axis. […] In cases where response values at the two endpoints were approximately equivalent, points lying above or below this predicted line of additivity could be interpreted as representing antagonistic or synergistic drug interaction respectively.
In general terms: Formazan colour is commonly taken as a measure of viable cells.

Another test has as its system UACC-257 cells. Described as above. The format is cell-based. Particulars: UACC-257, MTS; read-out: IC50 (Molar). On the procedure:
as §3, §4, §5, §6, §7, §8

Regarding `N.N.O=C([O-])C1(C(=O)[O-])CCC1.[Pt+2]` [carboplatin], the “% T/C on day 23” value in test [1] is reported as 95%. Further, in test [1], the “% T/C on day 70” value is 60%. Also, the “Net Tumor Volume ± S.E.M.” value in test [2] (MRI-H187, DAY 24) was 213 ± 32 mg; in test [2] (MRI-H187, DAY 27), 301 ± 50 mg; in test [2] (MRI-H187, DAY 34) it was 540 ± 99 mg; in test [2] (MRI-H187, DAY 38) it was 793 ± 132 mg; in test [2] (MRI-H187, DAY 41), 917 ± 138 mg; in test [2] (MRI-H187, DAY 46), 1303 ± 237 mg. Besides, the “Net Tumor Volume ± S.E.M.” value in test [2] (MRI-H187, DAY 52) was 1603 ± 288 mg; in test [2] (MRI-H187, DAY 55), 1989 ± 373 mg; in test [2] (MRI-H187, DAY 59), 2292 ± 487 mg; in test [2] (MRI-H187, DAY 62), 2659 ± 492 mg; in test [2] (MRI-H187, DAY 66) it was 2723 ± 519 mg; in test [3] (DAY 6, Aplidine 50 μg/kg), 107 ± 3 mg. In addition, the “Net Tumor Volume ± S.E.M.” value in test [3] (DAY 8, Aplidine 50 μg/kg) was 347 ± 43 mg; in test [3] (DAY 12, Aplidine 50 μg/kg), 1167 ± 117 mg; in test [3] (DAY 14, Aplidine 50 μg/kg), 2936 ± 543 mg; in test [3] (DAY 19, Aplidine 50 μg/kg), 4598 ± 1182 mg. For the same compound, the IC50 – broadly, the point on the concentration scale where inhibition reaches its midpoint – was determined as 120 µM in the test with LOXIMVI cells and 170 µM in the test with UACC-257 cells.

The record behind these values is patent publication US8258098B2, “Antitumoral treatments” (Pharma Mar, S.A., priority 2006, dated 2012).
